Test results as given in patent publication US20250127896A1, “CHIMERIC TIM4 RECEPTORS AND USES THEREOF” (CERO THERAPEUTICS HOLDINGS, INC., priority 2021, published 2025).

Experiments:
[1] = test system: REC-1 cells; assay: Phagocytosis of pHrodo-labeled ibrutinib-treated REC-1 cells by CER T cells; format: cell-based
Text: FIG. 13A: Representative flow cytometry histograms showing engulfment of pHrodo red-labeled REC-1 target cells by CER1234, CER1161, and CER1183 T cells. FIG. 13B: Graphical summary of flow cytometry data showing engulfment of pHrodo red-labeled REC-1 target cells by CER1234, CER1161, and CER1183 T cells. * P<0.01, ** P<0.001, *** P<0.0001; mean+SD, n=4. FIG. 13C: Representative fluorescence microscopy images (at 40×) showing engulfment of pHrodo red-labeled REC-1 target cells by CER1234, CER1161, and CER1183 T cells. FIG. 13D: Engulfed pHrodo-green-labeled REC-1 tumor fragments co-localize into Lyso-tracker red-labeled lysosomes.
Phagocytosis was assessed in co-culture assays of REC-1 cells with CER T cells. […] The percentage of pHrodo red-positive cells was determined by flow cytometry after 16 or 40 hours of co-culture. The localization of tumor fragments in CER T-cell lysosomal compartments was assessed in a separate experiment with REC-1 cells labeled with pHrodo green; following co-culture, all cells were labeled with Lyso-tracker red. Visualization of engulfment was performed by fluorescence microscopy. 1-way ANOVA with Dunnett's post hoc test was performed compared with untransduced T cells.

[2] = test system: phosphatidylserine (PS); assay: Recursive stimulation plate assay: IFN-γ on serial phosphatidylserine exposure; format: cell-based; conditions: 3 serial rounds
Text: FIGS. 19A-19C: CER T cells are activated and produce IFN-γ in response to phosphatidylserine engagement in a cell-free in vitro system. FIG. 19A: IFN-γ production in response phosphatidylserine (PS). IFN-γ production was induced in CER-1236 and CER-1234 T cells stimulated with PS (FIG. 19A), but not with phosphatidylethanolamine (PE) (FIG. 19B). […] FIG. 19C: CER1236 T cells are capable of recursive stimulation in vitro. Recursive IFN-γ induction with 3 serial stimulations at the indicated time points following a 24-hour rest after the first stimulation.
FIG. 43 is a schematic depicting assay design for measuring CER1236 reactivation in response to stimulus by repeated phosphatidylserine stimulation of CER1236 T cells and measurement of IFNγ production.
CER T-cell activation was assessed by measuring induction of IFN-gamma by plate- and cell-based assays. […] CER T cells were added and IFN-γ levels were measured 24 hours after ligand exposure by ELISA. EC50 concentrations were determined by nonlinear regression (agonist vs. response-variable slope (4 parameters)). […] Cell-based assay: cytokine induction was assessed by multiparametric ELISA using conditioned supernatants harvested after 120 hours from the cytotoxicity assay described below.

Substance | localization of internalized fragments ([1]; BTK inhibitor-primed REC-1 cells) | engulfment of pHrodo red+ target cells ([1]; REC-1 pretreated 10 μM ibrutinib, 16 and 40 hours of co-culture) | IFN-γ response upon serial phosphatidylserine exposure [2]
CER-1234: chimeric Tim4 receptor: Tim4 binding domain-CD28tm-CD28-TLR2 TIR-CD3z, SEQ ID NO:18; tested as transduced T cells | internalized fragments were localized to lysosomal compartments | increased engulfment of pHrodo red+target cells relative to untransduced T cells | –
CER-1236: chimeric Tim4 receptor: Tim4 binding domain-CD28tm-CD28-CD3z-TLR2 TIR, SEQ ID NO:19; tested as transduced T cells | – | – | elicited repeated IFN-γ response upon 3 serial rounds of exposure to phosphatidylserine
